In the case of `CCOC(=O)N1C=CC(c2c(-c3ccccc3)nc3ccc(Cl)nn23)C=N1` (configuration not stated), the melting point was 126 to 131 °C.
As for `N#Cc1cccc(-n2c(=O)c(CCCc3ccncc3)cc3cccnc32)c1`, the figure is 202 to 204 °C.
As for `Cc1cnc(C)n2c1c(CCSC1=NCCN1)c1ccccc12`, the figure is 157 to 159 °C; as for `CN(CCSCc1n[nH]c(CSCCN(C)C(N)=S)n1)C(N)=S`, 133 to 135 °C.
As for `COc1ccc(C(=O)c2ccc(-n3ccnc3)cc2)cc1OC`, the figure is 149 to 151 °C; as for `COc1ccc2c(c1)C(=O)c1c-2c(O)nc2ccccc12`, 294 to 296 °C.
For `c1ccc(-c2ccc(CCOc3ncnc4ccccc34)cc2)cc1`, the melting point was 72 to 74 °C.
Compound `CS(=O)CC(C)(C)NC(=O)c1c(I)cccc1-c1ccc(C(F)(F)F)cc1` (configuration not stated) registered a melting point of 155 to 158 °C.
With `CCCOc1ccc(S(=O)(=O)N2CCN(CCOC(C)=O)CC2)cc1-c1nc2c(CCCF)cn(CC)c2c(=O)[nH]1`, the melting point lay in the range of 134 to 135 °C.
Under `CCOc1cc2c(Nc3cc(OC)c(Cl)cc3Cl)c(C#N)cnc2cc1I` stands 213 to 215 °C.
Under `COc1ccc2sc(C3=C(C(C)(C)C)C(C)(C)CO3)cc2c1` stands 58 to 59 °C; under `COc1cccc(-c2cc(Cl)cc3c2OC(C(F)(F)F)C(C(=O)O)=C3)c1` (configuration not stated), 173 to 177 °C; under `CCCOc1ccc(-c2ccc3c(c2)C=C(C(=O)O)CCS3(=O)=O)cc1`, 270 to 273 °C.
Under `CCOc1ccc(C(=O)Nc2ccccc2)cc1[N+](=O)[O-]` stands 189 to 190 °C; under `Cc1coc(NC(=O)C2c3ccccc3Oc3ccccc32)n1`, 219 to 222 °C.
The compound `Cc1cc(O)ccc1-c1nn(CC(C)C)c2c(F)cccc12` registered a melting point of 126 to 128 °C.
Under `CCNC(=NC#N)NCCSCc1csc(NC(=N)N)n1` stands 181 to 182 °C; under `CCCCC(CC)(C(=O)O)C(=O)O`, 161 to 170 °C; under `Cn1ncnc1COc1nc2c(-c3ccc(F)cc3)nncn2c1-c1ccccc1`, 130 °C.
Under `COC(=O)c1cc(CCC2CNc3nc(NC(=O)C(C)(C)C)nc(O)c3C2)cn1[Si](C(C)C)(C(C)C)C(C)C` (configuration not stated) stands 202 to 204 °C; under `O=CN1CCN(c2c(F)c(F)c3c(=O)c(C(=O)O)cn(C4CC4)c3c2F)CC1`, 290 to 297 °C; under `C#CCN(Cc1cc2c(=O)n(C)c(CN3CCOCC3)nc2cc1Cl)c1ccc(C(=O)OC(C)(C)C)cc1`, 140 to 143 °C.
Under `CCOC(=O)C(Cc1ccc(OC)cc1SCc1ccc(OC)cc1)(CC(C)C)C(=O)OCC` stands 59 to 60.5 °C.
In turn, `Cc1c(-c2ccc3c(c2)NC(=O)C(C)O3)nc2ccccn12` (configuration not stated) returned a melting point of 216 to 217 °C.
Under `O=S(=O)(c1ccc(O)cc1)c1ncsc1-c1ccccc1` stands 195 °C; under `CCC(=O)OC1(C(=O)COC(C)=O)CCC2C3CC(C)C4=CC(=O)C=CC4(C)C3C(O)CC21C` (configuration not stated), 138 °C.
Under `O=C(O)c1cc(S(=O)(=O)N(CCc2ccc(Cl)cc2)Cc2ccccc2)ccc1Br` stands 142 to 144 °C; under `CNc1nc(C(C)c2ccc(-c3ccccc3)c(F)c2)c(C(=O)NO)s1` (configuration not stated), 118 °C; under `NC(=O)c1cccc(-c2ccc(Oc3ccccc3)cc2)n1`, 178 to 180 °C.
Under `CN(C)CC1CCc2cc(NC(=O)c3ccc(Br)cc3)ccc2C1` (configuration not stated) stands 141 to 143 °C; under `CS(=O)(=O)NC1CCN(C(=O)Cn2nc(-c3ccncc3)cc2Cc2ccc(F)cc2)CC1`, 128 to 139 °C.
Take `Cn1nccc1OCc1c(S(C)(=O)=O)ccc(C(=O)C2C(=O)CC(C)(C)CC2=O)c1Cl`: the melting point was 82 °C.
Consider `CCCCCCCC/C(=C\C=C\C(=O)O)c1ccc(OC)cc1`, for which the melting point lay within 109 to 110 °C.
The compound `Cc1nc(-c2ccccc2)ncc1CN1CCN(c2ccc(O)cc2)CC1` yielded a melting point of 201 to 202 °C.
`NNc1nccc(-c2ccc(OC3CCOCC3)c(Cl)c2)c1Cl` gave a melting point of 173 °C.
As for `CC(=O)N(c1cccc(Oc2ccccc2)c1)C(C)C(=O)O` (configuration not stated), the figure is 145 to 146 °C; as for `C=Cn1cc(C(=O)O)c(=O)c2ccc(N3CCN(C)CC3)nc21`, 238 to 239 °C; as for `NC(=NO)c1ccccc1C(F)(F)F`, 74 to 76 °C.
The compound `N#CCCNC(=O)C1=CC(CF)(CF)Oc2ccc([N+](=O)[O-])cc21` had a melting point of 173 to 174 °C.
Under `CC(C)OC(=O)Cn1c(-c2ccc(Cl)cc2)nc2cccnc21` stands 118 to 120 °C; under `O=C1c2ccccc2C(=O)N1Cc1cn2ccccc2n1`, 230 to 232 °C.
As for `CCCCCCCCOc1ccc(-c2nnn[nH]2)c(O)c1`, the melting point was 142 to 146 °C.
Under `Cc1cc(Cl)c2c(c1)C=C(C(=O)O)C(C(F)(F)F)O2` (configuration not stated) stands 226 to 227 °C; under `COc1cc(N2CCOCC2)ccc1Nc1nc(Nc2ccc3c(c2OC)CCCC(=O)N3)ncc1Cl`, 248 to 249 °C.
Under `CS(=O)(=O)NCc1ccc2[nH]cc(C(=O)C(=O)N3CCCC3)c2c1` stands 235 to 236 °C; under `COc1cc2c(cc1OC(=O)c1ccccc1)C1Cc3c(Cl)cc(OC)c(OC(=O)c4ccccc4)c3CN1CC2` (configuration not stated), 152 to 154 °C; under `Cc1ccc(-c2ncc(Cl)cc2-c2ccc(S(C)=O)cc2)cn1` (configuration not stated), 122 to 123 °C.
Under `COc1nc(Cl)cnc1NS(=O)(=O)c1ccccc1-c1ccc(OC(C)C(=O)O)cc1` (configuration not stated) stands 223 to 225 °C.
Take `NCC1Cc2cccc(-c3cccc(Cl)c3)c2O1` (configuration not stated): the melting point was 150 to 154 °C.
In turn, `O=C1N(Cc2ccc(Cl)cc2)c2ccccc2C1(O)c1cc(OCc2ccccc2)ccc1O` (configuration not stated) came in with a melting point of 172 to 175 °C.
`Cc1cc(O)c(C)c(C)c1N` had a melting point of 153 to 154 °C.
As for `CCOc1ccc(C2(C(=O)O)CC2(C)C)cc1` (configuration not stated), the figure is 104 to 105 °C; as for `CC(C)[C@H](NC(=O)c1ccccc1)C(=O)NCC(=O)O`, 190 to 191 °C.
As to `O=C(O)c1ncn2c1[C@@H]1CCCN1C(=O)c1cc(Cl)ccc1-2`, the melting point amounted to 227 °C.
For `COCC(=O)OCc1c(C)n(Cc2ccccc2)c2c(OCc3ccc(F)cc3)nncc12`, the melting point fell in the range of 119 to 121 °C.
Under `CC(=O)Nc1cc(-c2ccncc2)cc2nc(-c3ccc(C)o3)nn12` stands 257 to 259 °C.
Under `COC(=O)CNc1cccc(C(N)=O)c1` stands 146 to 147 °C; under `CN(CC(O)C(Cc1ccccc1)NC(=O)OC(C)(C)C)CC(O)C(Cc1ccccc1)NC(=O)OC(C)(C)C` (configuration not stated), 62 to 70 °C.
The compound `CCOC(=O)c1cnc2cc(OC)c(OC)cc2c1Nc1cccc(Br)c1` had a melting point of 155 to 158 °C.
As for `CC(C)Cn1c(CNC(=O)OC(C)(C)C)c(-c2ccc(F)cc2)c2cc(O)ccc2c1=O`, the figure is 229 to 230 °C.
As for `Cc1cccc(SC2=C(O)CC(CCc3ccccc3)(c3ccccc3)OC2=O)c1` (configuration not stated), the figure is 68 to 70 °C; as for `CN1CCCC(Nc2nc3ccccc3[nH]2)CC1` (configuration not stated), 168 °C.
Under `CN1Cc2ccccc2C(=O)c2cc(CC(=O)NO)ccc21` stands 137 to 141 °C; under `FC(F)(F)c1cc(CCC2OCCNC2c2ccccc2)cc(C(F)(F)F)c1` (configuration not stated), 114 to 116 °C.
For `Cc1ccc(-c2cccs2)cc1C`, the melting point lay in the range of 49 to 51 °C.
`CCc1cccc(-c2nc(C3CCCCC3)n(C)n2)n1` displayed a melting point of 79.2 °C.
Turning to `N=C(N)N1CC(c2ccccc2)C(c2ccc(Cl)cc2)=N1` (configuration not stated), the melting point was 187 to 189 °C.
Under `COCOc1ccc(C2(c3cccc(-c4cccnc4F)c3)N=C(N)N3CCCN=C32)cc1` (configuration not stated) stands 95 to 105 °C.
As to `CC(C)(c1ccccc1)N1CCC(=O)C(c2ccccc2)C1=O` (configuration not stated), the melting point fell in the range of 129 to 132 °C.
`Cc1oc(-c2ccccc2)nc1COc1ccc(COc2cc(CCC(=O)O)n(-c3ccccc3)n2)cc1` had a melting point of 154 to 155 °C.
As for `O=c1ccc(-c2ccccc2O)n[nH]1`, the figure is 289 to 302 °C; as for `CC#CCOc1ccc(S(=O)(=O)N[C@H]2CCCC[C@H]2C(=O)NO)cc1`, 140 to 145 °C.
Compound `Cc1nc(-c2cc3cccc(N(C)S(=O)(=O)c4cccs4)c3[nH]2)cs1` displayed a melting point of 161 to 162 °C.
Under `Cc1cccc(COn2nnc3ccc(Cn4ccnc4)cc32)c1` stands 120 °C; under `Cc1cccnc1-n1c(=S)nc2c(C)cccn2c1=S`, 131 to 132 °C; under `COc1cc(C(=O)N2CC(O)CC2C(N)=O)cc(OC)c1OC` (configuration not stated), 172 °C.
As for `CC(=O)c1ccc(NC(=O)N2CCC3(CC2)CN(S(N)(=O)=O)c2ccccc23)cc1`, the figure is 233 to 236 °C; as for `COC(=O)C=Cc1cncc2ccccc12`, 79 to 80 °C.
As for `Cc1cc(C)cc(C(=O)N2CCC(N3CCC(C(=O)O)(c4ccccc4)CC3)CC2Cc2ccccc2)c1` (configuration not stated), the figure is 259 °C; as for `CC(C)NC(=O)c1c(NC(=O)c2cc(C(F)(F)F)nn2-c2ncccc2Cl)ccc2cc[nH]c12`, 240 to 242 °C; as for `CCOC(=O)COc1ccc(-c2noc3ccccc23)c(Cl)c1Cl`, 88 to 89 °C.
Compound `CCOC(=O)c1cc(OCCC2CCN(c3ccc(Cl)nn3)CC2)cs1` showed a melting point of 112 °C.
Under `Cc1oc2c(-n3c(=O)cc(C(F)(F)F)n(C)c3=O)ccc(Cl)c2c1C` stands 152 to 153 °C.
`Cc1cccc(-n2cnc(OC(C)C(=O)O)n2)c1` (configuration not stated) gave a melting point of 155 to 157 °C.
`COc1ccc(C(=O)Nc2ccc(-c3ccc(-c4noc(C)n4)cc3C)cc2)cc1CCCN(C)C`: the melting point lay in the range of 163 to 165 °C.
As for `CC(=O)CCc1nc2c(N)nc3ccccc3c2n1CC(C)C`, the figure is 172 to 174 °C; as for `CC(=O)Nc1nc2ccc(S(=O)(=O)n3c(CCC(=O)O)cc4cc(Cl)ccc43)cc2s1`, more than 250 °C.

The values are drawn from a melting point compilation (Tetko et al.; mined from patent text by program, amines drawn as free bases though some values may be those of a salt).
